Assay results: patent publication US9181288B2, “Azepane derivatives and methods of treating hepatitis B infections” (Novira Therapeutics, Inc., priority 2014, dated 2015)

What was measured:
[1] = molecular target: HBV C150Bo capsid protein (mutant C150 HBV core protein labeled with BODIPY-FL) (Hepatitis B virus genotype D subtype adw, UniProt P03147, C107A/C48A/C61A/R150C); assay: HBV assembly assay (fluorescence quenching in vitro capsid assembly); type: biochemical; settings: at about 10 μM; 50 mM Hepes pH 7.5, 150 mM NaCl, 1 hour room temperature
[2] = tested on: HBV replication in HepG2-2.2.15 cells; assay: Inhibition of HBV replication dot-blot assay; type: cell-based; settings: Hepatitis B virus, 144 h, six days, reduction in HBV DNA levels
Method: Compounds active in the HBV assembly assay are tested for their activity and toxicity in cellular assay. In the first anti-viral assay, the ability of compounds to inhibit HBV replication in an HBV-producing hepatoma cell line using the dot-blot method is evaluated.
Briefly, confluent monolayers of HepG2-2.2.15 cells are incubated with complete medium containing various concentrations of a test compound. Three days later, the culture medium is replaced with fresh medium containing the appropriately diluted test compound. Six days following the initial administration of the test compound, the cell culture supernatant is collected, and cell lysis is performed. The samples are applied onto Nylos membranes and DNA is immobilized to the membrane by UV cross-linking. After pre-hybridization, the HBV probe is added and the hybridization is performed overnight. The membranes are exposed to the Kodak films; antiviral activity is calculated from the reduction in HBV DNA levels (EC50). The EC50 for antiviral activity is calculated from the dose response curves of active compounds. Assay performance over time is monitored by the use of the standard positive control compounds ETV, BAY 41-4109, and HAP-1.
Selected compounds were tested for their activity and toxicity in cellular assay. In the first anti-viral assay, the ability of compounds to inhibit HBV replication in an HBV-producing hepatoma cell line using the dot-blot method was evaluated.
Confluent monolayers of HepG2-2.2.15 cells were incubated with complete medium containing various concentrations of a test compound. Three days later, the culture medium was replaced with fresh medium containing the appropriately diluted test compound. Six days following the initial administration of the test compound, the cell culture supernatant was collected, and cell lysis was performed. The samples were applied onto Nylos membranes and DNA was immobilized to the membrane by UV cross-linking. After pre-hybridization, the HBV probe was added and the hybridization was performed overnight. The membranes were exposed to the Kodak films; antiviral activity was calculated from the reduction in HBV DNA levels (EC50). The EC50 for antiviral activity was calculated from the dose response curves of active compounds. Assay performance over time was monitored by the use of the standard positive control compounds ETV, BAY 41-4109, and HAP-1.

HBV C150Bo capsid protein (mutant C150 HBV core protein labeled with BODIPY-FL), sequence (P03147 1-150 C48A/C61A/C107A/R150C): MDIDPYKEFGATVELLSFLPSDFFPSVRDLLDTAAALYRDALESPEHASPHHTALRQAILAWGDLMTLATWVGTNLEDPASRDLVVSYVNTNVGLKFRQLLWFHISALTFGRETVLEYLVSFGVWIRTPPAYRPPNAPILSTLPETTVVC

SMILES | Activity (HBV assembly assay) [1] | inhibition at 10 µM [2] [%]
O=C(Nc1ccc(F)c(Cl)c1)c1ccc(F)c(S(=O)(=O)N2CCCC(F)[C@@H](O)C2)c1 (stereo partly shown) [Compound 1822_D1] | + (‘+’ indicates >50% activity at about 10 μM) | > 50
CC1(O)CCCCN(S(=O)(=O)c2cc(C(=O)Nc3cc(F)c(F)c(F)c3)ccc2F)C1 (stereo not shown) [Compound 1892] | + (‘+’ indicates >50% activity at about 10 μM) | > 50
O=C(Nc1cc(F)c(F)c(F)c1)c1ccc(F)c(S(=O)(=O)N2CCOCC(O)(C3CC3)C2)c1 (stereo not shown) [Compound 1987] | + (‘+’ indicates >50% activity at about 10 μM) | > 50
O=C(Nc1ccc(F)c(Cl)c1)c1ccc(F)c(S(=O)(=O)N2CCCC(O)C(O)C2)c1 (stereo not shown) [Compound 1909] | – | > 50
O=C(Nc1ccc(F)c(Cl)c1)c1ccc(CF)c(S(=O)(=O)N2CCCC(O)CC2)c1 (stereo not shown) [Compound 1819] | + (‘+’ indicates >50% activity at about 10 μM) | > 50
O=C(Nc1ccc(F)c(F)c1)c1ccc(F)c(S(=O)(=O)N2CCOCC(O)C2)c1 (stereo not shown) [Compound 1894] | + (‘+’ indicates >50% activity at about 10 μM) | > 50
O=C(Nc1ccc(F)c(Cl)c1)c1ccc(F)c(S(=O)(=O)N2CCCC[C@H](O)C2)c1 [Compound 1763_E2] | + (‘+’ indicates >50% activity at about 10 μM) | > 50
O=C(Nc1ccc(F)c(Cl)c1)c1cccc(S(=O)(=O)N2CCOCC(O)C2)c1 (stereo not shown) [Compound 1977] | + (‘+’ indicates >50% activity at about 10 μM) | > 50
O=C(Nc1ccc(F)c(Cl)c1)c1ccc(CF)c(S(=O)(=O)N2CCCCCC2)c1 [Compound 2004] | + (‘+’ indicates >50% activity at about 10 μM) | > 50
O=C(Nc1ccc(F)c(Cl)c1)c1ccc(F)c(S(=O)(=O)N2C[C@H](O)CC[C@@H](O)C2)c1 [Compound 2433_D1] | + (‘+’ indicates >50% activity at about 10 μM) | > 50
O=C(Nc1cc(F)c(F)c(F)c1)c1ccc(F)c(S(=O)(=O)N2CCCCC(F)(F)C2)c1 [Compound 2121] | + (‘+’ indicates >50% activity at about 10 μM) | > 50
O=C(Nc1cc(F)c(F)c(F)c1)c1ccc(F)c(S(=O)(=O)N2CCC(O)C(F)(F)CC2)c1 (stereo not shown) [Compound 2202] | + (‘+’ indicates >50% activity at about 10 μM) | > 50
O=C(Nc1ccc(F)c(F)c1)c1ccc(CF)c(S(=O)(=O)N2CCCC(O)CC2)c1 (stereo not shown) [Compound 1917] | + (‘+’ indicates >50% activity at about 10 μM) | > 50
CC1(O)CCCCN(S(=O)(=O)c2cc(C(=O)Nc3ccc(F)c(F)c3)ccc2F)C1 (stereo not shown) [Compound 1891] | + (‘+’ indicates >50% activity at about 10 μM) | > 50
O=C(Nc1ccc(F)c(Cl)c1)c1ccc(CCF)c(S(=O)(=O)N2CCCC(O)CC2)c1 (stereo not shown) [Compound 2205, N-(3-chloro-4-fluoro-phenyl)-4-(2-fluoroethyl)-3-(4-hydroxyazepan-1-yl)sulfonyl-benzamide] | + (‘+’ indicates >50% activity at about 10 μM) | > 50
O=C(Nc1ccc(F)c(Cl)c1)c1ccc(CO)c(S(=O)(=O)N2CCCC(F)CC2)c1 (stereo not shown) [Compound 1769] | + (‘+’ indicates >50% activity at about 10 μM) | > 50
CC(=O)O[C@@H]1CC[C@@H](O)CN(S(=O)(=O)c2cc(C(=O)Nc3cc(F)c(F)c(F)c3)ccc2F)C1 [Compound 2618_D1] | + (‘+’ indicates >50% activity at about 10 μM) | > 50
O=C(Nc1ccc(F)c(Cl)c1)c1cc(S(=O)(=O)N2CCCC(O)CC2)c2[nH]cnc2c1 (stereo not shown) [Compound 2033] | + (‘+’ indicates >50% activity at about 10 μM) | > 50

SMILES | Activity (HBV assembly assay) [1] | inhibition at 10 µM [2] [%]
O=C(Nc1cc(F)c(F)c(F)c1)c1ccc(CF)c(S(=O)(=O)N2CCCCCC2)c1 [Compound 2002] | + (‘+’ indicates >50% activity at about 10 μM) | > 50
CC1(O)CCCN(S(=O)(=O)c2cc(C(=O)Nc3cc(F)c(F)c(F)c3)ccc2F)CC1 (stereo not shown) [Compound 1944] | + (‘+’ indicates >50% activity at about 10 μM) | > 50
O=C(Nc1cc(F)c(F)c(F)c1)c1ccc(CCF)c(S(=O)(=O)N2CCCC(O)CC2)c1 (stereo not shown) [Compound 2206] | + (‘+’ indicates >50% activity at about 10 μM) | > 50
Cc1ccc(C(=O)Nc2cc(F)c(F)c(F)c2)cc1S(=O)(=O)N1CCCCC(O)C1 (stereo not shown) [Compound 1915] | + (‘+’ indicates >50% activity at about 10 μM) | > 50
CC1(O)CCCN(S(=O)(=O)c2cc(C(=O)Nc3cc(F)c(F)c(F)c3)ccc2CF)CC1 (stereo not shown) [Compound 1829-2] | + (‘+’ indicates >50% activity at about 10 μM) | > 50
CC1(O)CCCCN(S(=O)(=O)c2cc(C(=O)Nc3ccc(F)c(Cl)c3)ccc2F)C1 (stereo not shown) [Compound 1890] | + (‘+’ indicates >50% activity at about 10 μM) | > 50
O=C(Nc1ccc(F)c(Cl)c1)c1ccc(CF)c(S(=O)(=O)N2CCOCC(O)C2)c1 (stereo not shown) [Compound 1983] | + (‘+’ indicates >50% activity at about 10 μM) | > 50
O=C(Nc1ccc(F)c(Cl)c1)c1ccc(CO)c(S(=O)(=O)N2CCCCC(F)C2)c1 (stereo not shown) [Compound 1768] | + (‘+’ indicates >50% activity at about 10 μM) | > 50
O=C(Nc1cc(F)c(F)c(F)c1)c1ccc(F)c(S(=O)(=O)N2CC(O)CC3CC3C2)c1 (stereo not shown) [Compound 2548] | + (‘+’ indicates >50% activity at about 10 μM) | > 50
O=C(Nc1ccc(F)c(Cl)c1)c1ccc(F)c(S(=O)(=O)N2CCCC(F)CC2)c1 (stereo not shown) [Compound 2123] | + (‘+’ indicates >50% activity at about 10 μM) | > 50
O=C(Nc1ccc(F)c(Cl)c1)c1ccc(F)c(S(=O)(=O)N2CCOC[C@@H](O)C2)c1 [Compound 1893_E1] | + (‘+’ indicates >50% activity at about 10 μM) | > 50
COc1ccc(C(=O)Nc2ccc(F)c(Cl)c2)cc1S(=O)(=O)N1CCOCC(O)C1 (stereo not shown) [Compound 1980] | + (‘+’ indicates >50% activity at about 10 μM) | > 50
O=C(Nc1ccc(F)c(Cl)c1)c1ccc(F)c(S(=O)(=O)N2CCOCC(O)C2)c1 (stereo not shown) [Compound 1893] | + (‘+’ indicates >50% activity at about 10 μM) | > 50
O=C(Nc1ccc(F)c(Cl)c1)c1ccc(F)c(S(=O)(=O)N2CCC[C@@H](O)CC2)c1 [Compound 1766_E1] | + (‘+’ indicates >50% activity at about 10 μM) | > 50
O=C(Nc1cc(F)c(F)c(F)c1)c1ccc(CF)c(S(=O)(=O)N2CCOCC(O)C2)c1 (stereo not shown) [Compound 1981] | + (‘+’ indicates >50% activity at about 10 μM) | > 50
O=C(Nc1ccc(F)c(Cl)c1)c1ccc(CF)c(S(=O)(=O)N2CCCC(O)CC2)c1 (stereo not shown) [Compound 1916] | + (‘+’ indicates >50% activity at about 10 μM) | –
COc1ccc(C(=O)Nc2ccc(F)c(Cl)c2)cc1S(=O)(=O)N1CCCC(O)C(F)C1 (stereo not shown) [Compound 2114_D2] | + (‘+’ indicates >50% activity at about 10 μM) | –
